The values below come from ChEMBL document CHEMBL1201862, “PubChem BioAssay data set” (2004).

Active and inactive are the calls of the source. Rule as the data show it, for most assays here: actives have a measured IC50 and inactives only a lower limit.

For one experiment, the system named is CHO-K1. Put plainly: Counterscreen for antagonists of the orexin 1 receptor (OX1R; HCRTR1): Homogeneous time resolved fluorescence (HTRF)-based cell-based dose response assay to identify antagonists of the parental CHO-K1 cell line. [Related pubchem assays (depositor defined):AID434989, AID435008, AID463079, AID485270, AID492963, AID492964, AID492965, AID493232, AID504699, AID504701]. The settings on record: Cricetulus griseus. In kind it is functional. On the technique in general: The purpose of a counterscreen is to sort out artefacts and off-target activity.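 Also: potency for inhibition of ATP-stimulated IP1 production as antagonists.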

The nature of experiment [1]: Counterscreen for antagonists of the orexin 1 receptor (OX1R; HCRTR1): Fluorescence-based cell-based high throughput dose response assay to identify antagonists of the parental CHO cell line. [Related pubchem assays (depositor defined):AID434989, AID435008, AID463079, AID485270, AID492963, AID492964, AID492965, AID493232, AID504699, AID504701]. It is filed as functional.

Experiment [2] concerns the target T1, Orexin/Hypocretin receptor type 1 (Homo sapiens, UniProt O43613).
T1 sequence (O43613 whole entry): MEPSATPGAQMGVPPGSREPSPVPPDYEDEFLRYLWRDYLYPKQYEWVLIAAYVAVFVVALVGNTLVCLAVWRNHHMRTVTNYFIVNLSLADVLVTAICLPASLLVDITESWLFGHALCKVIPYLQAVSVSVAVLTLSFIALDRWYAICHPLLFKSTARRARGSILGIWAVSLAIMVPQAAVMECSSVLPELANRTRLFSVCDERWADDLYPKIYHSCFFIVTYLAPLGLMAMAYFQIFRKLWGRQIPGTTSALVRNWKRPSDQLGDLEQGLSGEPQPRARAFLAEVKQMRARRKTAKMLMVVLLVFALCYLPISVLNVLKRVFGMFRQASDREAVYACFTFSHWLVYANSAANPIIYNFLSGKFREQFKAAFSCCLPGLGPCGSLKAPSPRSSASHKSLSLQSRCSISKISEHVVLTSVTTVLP
Put plainly: Homogeneous Time Resolved Fluorescence (HTRF)-based cell-based high throughput dose response assay for antagonists of the orexin 1 receptor (OX1R; HCRTR1). [Related pubchem assays (depositor defined):AID434989, AID435008, AID463079, AID485270, AID492963, AID492964, AID492965, AID493232, AID504717, AID504718]. In kind it is functional. (In general: TR-FRET usually uses a lanthanide donor and a delayed reading to cut background.)

Experiment [3] concerns the target T1, Orexin/Hypocretin receptor type 1. Put plainly: Fluorescence-based cell-based high throughput dose response assay for antagonists of the orexin 1 receptor (OX1R; HCRTR1). [Related pubchem assays (depositor defined):AID434989, AID435008, AID463079, AID485270, AID492963, AID492964, AID492965, AID493232, AID504717, AID504718]. It is filed as functional.
The target of experiment [4] is T2, Orexin receptor type 2 (Homo sapiens, UniProt O43614). Put plainly: Counterscreen assay for antagonists of the orexin 1 receptor (OX1R; HCRTR1): Fluorescence-based cell-based dose response assay for antagonists of the orexin 2 receptor (OX2R; HCRTR2), run by assay provider. It is filed as functional.
The target of experiment [5] is T2, Orexin receptor type 2. Put plainly: Counterscreen assay for antagonists of the orexin 1 receptor (OX1R; HCRTR1): Homogeneous Time Resolved Fluorescence (HTRF)-based cell-based dose response assay for antagonists of the orexin 2 receptor (OX2R; HCRTR2), run by assay provider. It is filed as functional.
Experiment [6] deals with T3, Sentrin-specific protease 8 (Homo sapiens, UniProt Q96LD8).
T3 sequence (Q96LD8 whole entry): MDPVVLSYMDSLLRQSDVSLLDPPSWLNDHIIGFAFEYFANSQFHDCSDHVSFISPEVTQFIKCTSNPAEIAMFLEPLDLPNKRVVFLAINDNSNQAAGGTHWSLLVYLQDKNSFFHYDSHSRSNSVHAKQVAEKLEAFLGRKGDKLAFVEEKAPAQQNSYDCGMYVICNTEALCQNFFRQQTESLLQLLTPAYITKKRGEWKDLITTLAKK
Put plainly: inhibition of human SENP8 cleavage activity – biochemical, luminescence, SAR follow-up (AID 504501). It is filed as functional.

Experiment [7] addresses T4, Caspase-3 (Homo sapiens, UniProt P42574).
T4 sequence (P42574 whole entry): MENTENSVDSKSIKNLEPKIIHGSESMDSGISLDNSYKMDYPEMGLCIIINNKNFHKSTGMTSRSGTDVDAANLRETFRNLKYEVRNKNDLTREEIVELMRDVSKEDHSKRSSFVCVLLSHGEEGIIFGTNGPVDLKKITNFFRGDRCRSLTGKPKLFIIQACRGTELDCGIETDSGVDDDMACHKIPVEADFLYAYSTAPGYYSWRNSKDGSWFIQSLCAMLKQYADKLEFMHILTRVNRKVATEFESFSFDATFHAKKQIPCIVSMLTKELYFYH
Put plainly: inhibition of recombinant caspase-3 activity – biochemical, luminescence, set 2, selectivity assay for SENP protease inhibitor project, SAR follow-up (AID 588599). In kind it is functional.

Experiment [8] addresses T3, Sentrin-specific protease 8. Put plainly: inhibition of sentrin protease 8 – biochemical, luminescence, set 2, SAR follow-up (AID 588601). It is filed as functional.
Experiment [9] has as its target T4, Caspase-3. Put plainly: SAR Analysis of small molecule inhibitors of Sentrin-specific proteases (SENPs) using a Caspase-3 Selectivity assay. [Related pubchem assays (depositor defined):AID2540, AID2599, AID434973, AID489001]. In kind it is functional.
For experiment [10], the target named is T5, Sentrin-specific protease 7 (Homo sapiens, UniProt Q9BQF6).
T5 sequence (Q9BQF6 whole entry): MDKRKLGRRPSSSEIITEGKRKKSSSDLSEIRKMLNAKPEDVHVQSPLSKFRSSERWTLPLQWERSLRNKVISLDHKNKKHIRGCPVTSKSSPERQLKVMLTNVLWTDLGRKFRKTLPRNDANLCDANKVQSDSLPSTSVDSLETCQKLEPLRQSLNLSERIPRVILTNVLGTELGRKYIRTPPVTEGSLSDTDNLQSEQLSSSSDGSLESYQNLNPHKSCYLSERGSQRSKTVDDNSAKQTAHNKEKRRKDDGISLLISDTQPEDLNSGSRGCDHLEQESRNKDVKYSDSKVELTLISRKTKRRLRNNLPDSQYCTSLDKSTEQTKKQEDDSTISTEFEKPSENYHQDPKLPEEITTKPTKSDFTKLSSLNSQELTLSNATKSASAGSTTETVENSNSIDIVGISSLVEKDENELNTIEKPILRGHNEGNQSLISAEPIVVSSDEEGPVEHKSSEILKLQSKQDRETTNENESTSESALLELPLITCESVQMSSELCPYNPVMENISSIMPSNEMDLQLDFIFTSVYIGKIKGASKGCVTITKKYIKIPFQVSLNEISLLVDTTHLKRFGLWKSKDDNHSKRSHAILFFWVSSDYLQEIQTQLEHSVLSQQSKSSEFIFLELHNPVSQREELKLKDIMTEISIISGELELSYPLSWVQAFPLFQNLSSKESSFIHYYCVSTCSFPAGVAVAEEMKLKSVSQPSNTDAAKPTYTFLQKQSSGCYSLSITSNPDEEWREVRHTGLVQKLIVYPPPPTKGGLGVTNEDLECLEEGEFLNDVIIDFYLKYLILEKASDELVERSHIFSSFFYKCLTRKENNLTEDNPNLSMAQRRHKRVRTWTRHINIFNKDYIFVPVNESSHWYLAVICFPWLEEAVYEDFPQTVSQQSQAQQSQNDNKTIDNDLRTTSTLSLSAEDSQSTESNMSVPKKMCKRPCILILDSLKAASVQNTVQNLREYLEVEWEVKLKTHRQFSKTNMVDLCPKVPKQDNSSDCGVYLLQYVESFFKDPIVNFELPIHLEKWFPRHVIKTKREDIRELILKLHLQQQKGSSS
Put plainly: inhibition of human SENP7 cleavage activity – biochemical, luminescence, set 2, SAR follow-up (AID 588600). It is filed as functional.

Experiment [11] has as its target T6, Sentrin-specific protease 6 (Homo sapiens, UniProt Q9GZR1).
T6 sequence (Q9GZR1 whole entry): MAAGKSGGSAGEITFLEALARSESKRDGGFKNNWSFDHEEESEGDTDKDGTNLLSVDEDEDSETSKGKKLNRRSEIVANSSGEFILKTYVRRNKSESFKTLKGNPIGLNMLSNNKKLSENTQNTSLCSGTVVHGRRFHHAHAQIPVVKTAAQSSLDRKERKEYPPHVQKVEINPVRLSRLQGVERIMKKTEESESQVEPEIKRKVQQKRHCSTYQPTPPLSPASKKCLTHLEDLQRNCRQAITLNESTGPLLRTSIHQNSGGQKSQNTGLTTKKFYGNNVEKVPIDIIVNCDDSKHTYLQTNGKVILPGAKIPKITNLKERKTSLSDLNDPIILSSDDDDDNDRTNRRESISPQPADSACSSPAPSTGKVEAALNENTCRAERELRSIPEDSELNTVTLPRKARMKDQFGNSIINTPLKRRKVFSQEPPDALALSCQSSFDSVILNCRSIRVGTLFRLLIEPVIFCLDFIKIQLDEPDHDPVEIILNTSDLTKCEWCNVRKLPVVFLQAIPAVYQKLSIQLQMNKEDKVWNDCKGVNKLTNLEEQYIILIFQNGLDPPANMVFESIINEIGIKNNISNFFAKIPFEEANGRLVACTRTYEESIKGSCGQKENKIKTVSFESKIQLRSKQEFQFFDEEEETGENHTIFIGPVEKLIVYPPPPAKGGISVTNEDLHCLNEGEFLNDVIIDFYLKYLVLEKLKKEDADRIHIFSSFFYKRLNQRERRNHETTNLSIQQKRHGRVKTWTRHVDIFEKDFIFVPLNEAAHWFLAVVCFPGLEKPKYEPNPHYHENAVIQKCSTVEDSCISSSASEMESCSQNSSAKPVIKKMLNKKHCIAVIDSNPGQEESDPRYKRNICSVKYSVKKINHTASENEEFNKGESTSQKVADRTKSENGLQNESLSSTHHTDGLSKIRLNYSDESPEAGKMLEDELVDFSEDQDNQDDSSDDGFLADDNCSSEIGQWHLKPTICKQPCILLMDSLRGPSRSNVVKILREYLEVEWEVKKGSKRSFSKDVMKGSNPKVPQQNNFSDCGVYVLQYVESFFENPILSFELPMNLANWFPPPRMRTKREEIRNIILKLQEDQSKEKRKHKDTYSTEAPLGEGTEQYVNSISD
Put plainly: SAR Analysis of small molecule inhibitors of Sentrin-specific protease 6 (SENP6) using a Luminescent assay. [Related pubchem assays (depositor defined):AID2582, AID2599]. In kind it is functional.

For experiment [12], the target named is T6, Sentrin-specific protease 6. Put plainly: inhibition of human SENP6 catalytic domain – biochemical, luminescence, set 2, SAR follow-up (AID 588598). In kind it is functional.
The target in experiment [13] is T5, Sentrin-specific protease 7. Put plainly: inhibition of human SENP7 cleavage activity – biochemical, luminescence, SAR follow-up (AID 504497). It is filed as functional.
Experiment [14] can be described thus: Mcl1-dependent cancer cell viability – HMC-1-8 cells, luminescence, dry powder, selectivity assay for A1 inhibitor project, dose response (AID 504415). In kind it is functional, cell-based. To be noted: Homo sapiens.

T2 sequence (O43614 whole entry): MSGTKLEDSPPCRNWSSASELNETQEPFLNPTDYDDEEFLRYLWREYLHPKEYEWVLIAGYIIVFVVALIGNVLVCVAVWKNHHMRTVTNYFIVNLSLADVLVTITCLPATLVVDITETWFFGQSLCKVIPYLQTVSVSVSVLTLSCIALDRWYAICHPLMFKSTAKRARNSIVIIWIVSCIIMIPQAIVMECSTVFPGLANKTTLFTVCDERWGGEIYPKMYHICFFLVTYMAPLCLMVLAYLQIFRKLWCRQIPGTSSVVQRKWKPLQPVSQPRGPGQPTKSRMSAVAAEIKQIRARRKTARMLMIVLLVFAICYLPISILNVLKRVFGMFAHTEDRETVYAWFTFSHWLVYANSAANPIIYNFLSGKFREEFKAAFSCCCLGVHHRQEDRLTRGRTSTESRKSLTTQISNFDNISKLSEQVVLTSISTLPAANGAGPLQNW

As a reminder, the IC50 is the point on the concentration scale where inhibition reaches its midpoint. As to `O=C(O)CCn1c(SCCOc2ccccc2)nc2ccccc21`, the IC50 with CHO-K1 is > 66.2 µM (inactive); in [1] it was > 49.7 µM (inactive); in experiment [2] it was 0.687 µM (active); in experiment [3], 23 µM (inactive); at Orexin receptor type 2 [4] it was > 88.8 µM (inactive); at Orexin receptor type 2 [5] it was > 50 µM (inactive).
As to `CC(=O)Nc1ccc(/C=C/c2noc(-c3ccccc3O)n2)cc1`, the IC50 in experiment [6] was > 99 µM (inactive); at Caspase-3 [7], > 99 µM (inactive); in experiment [8] it was 1.86 µM (active); on Caspase-3 [9], 35 µM (active); in [10], 2.31 µM (active); in [11], > 99 µM (inactive). Moreover, the IC50 in [12] was > 99 µM (inactive); in experiment [13], 7.2 µM (active).
As a reminder, the AC50 is the concentration giving half of the maximal activity seen. `Cc1ccc(Sc2c([N+](=O)[O-])c(=O)oc3ccccc23)cc1`: the AC50 in experiment [14] is 37.1 µM (active).
